# Values of other authors, collected in patent US20210045998A1 (priority 2018, published 2021).
# Conditions: in vivo
compound,measurement,value
"CC1=CC[C@H]2C[C@@H]1C2(C)C [α-Pinene, (1S,5S)-2,6,6-Trimethylbicyclo[3.1.1]hept-2-ene]",human pulmonary uptake,60%
